Data reported in patent US5891877A, “Pharmaceutical compounds” (Xenova Limited, priority 1996, dated 1999).

Molecular target: PAI-1 (Homo sapiens, UniProt P05121)
Test: PAI-1 inhibition in the S2251 chromogenic substrate assay (PAI functional assay)
Format: biochemical
Details: for INHIBITION OF PAI-1 (degree of inhibition): Table 1, first part, unit assumed; for IC50: PAI-1, S2251 assay, Table 2
Description: In this assay, a compound is incubated with PAI-1 prior to addition to the tPA assay system. Inhibition of PAI-1 results in the production of plasmin from plasminogen. […]
Compounds of formula (A) were tested in a PAI chromogenic substrate assay. […] In turn, the plasmin cleaved the chromogenic substrate S2251 (Kabi-Vitrum) producing pNA (p-nitroaniline) which was detected scectrophotometrically at 405 nm.

Sequence of PAI-1 (P05121 24-402): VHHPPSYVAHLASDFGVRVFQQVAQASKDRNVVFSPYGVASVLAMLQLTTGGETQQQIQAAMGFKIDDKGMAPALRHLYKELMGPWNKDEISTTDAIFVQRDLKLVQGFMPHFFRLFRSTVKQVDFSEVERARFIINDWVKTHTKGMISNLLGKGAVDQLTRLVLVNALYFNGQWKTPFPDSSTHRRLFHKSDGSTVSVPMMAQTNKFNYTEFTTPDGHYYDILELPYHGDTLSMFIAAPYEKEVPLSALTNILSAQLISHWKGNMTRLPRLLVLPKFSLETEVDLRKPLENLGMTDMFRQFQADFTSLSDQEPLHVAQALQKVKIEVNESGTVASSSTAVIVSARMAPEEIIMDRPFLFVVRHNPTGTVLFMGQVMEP

Structure (SMILES) | INHIBITION OF PAI-1 (degree of inhibition) (6.25 μm) | INHIBITION OF PAI-1 (degree of inhibition) (12.5 μm) | INHIBITION OF PAI-1 (degree of inhibition) (25 μm) | INHIBITION OF PAI-1 (degree of inhibition) (50 μm) | INHIBITION OF PAI-1 (degree of inhibition) (100 μm) | IC50
CC(C)(C)OC(=O)n1cccc1/C=c1\[nH]c(=O)/c(=C/c2ccccc2)[nH]c1=O [Compound 1470, (3Z,6Z)-3-Benzylidene-6-(2-(1-tertbutoxycarbonyl)pyrrolyl)methylene-2,5-piperazinedione] | 0% | 0% | 2% | 20% | 70% | 50 to 100 µM
CC(C)(C)OC(=O)n1cc(/C=c2\[nH]c(=O)/c(=C/c3ccccc3)[nH]c2=O)c2ccccc21 [Compound 1471, (3Z,6Z)-3-Benzylidene-6-(3-(1-tert-butoxycarbonyl)indolyl)methylene-2,5-piperazinedione] | 0% | 6% | 20% | 60% | 80% | 25 to 50 µM
COc1ccc(/C=c2\[nH]c(=O)/c(=C/c3cccs3)[nH]c2=O)cc1 [Compound 1474, (3Z,6Z)-3-(4-Methoxybenzylidene)-6-(2-thienylmethylene)-2,5-piperazinedione] | – | – | 28% | 52% | 64% | 25 to 50 µM
COc1ccc(/C=c2\[nH]c(=O)/c(=C/c3ccoc3)[nH]c2=O)cc1 [Compound 1476, (3Z,6Z)-3-(4-Methoxybenzylidene)-6-(3-furylmethylene)-2,5-piperazinedione] | – | – | 18% | 48% | 68% | 50 to 100 µM
COc1ccc(/C=c2\[nH]c(=O)/c(=C/c3cn(C(=O)OC(C)(C)C)c4ccccc34)[nH]c2=O)cc1 [Compound 1506, (3Z,6Z)-3-(4-Methoxybenzylidene)-6-(3-(1-tert-butoxycarbonyl)indolyl)methylene-2,5-piperazinedione] | 2% | 4% | 26% | 58% | 75% | 25 to 50 µM
COc1ccc(/C=c2\[nH]c(=O)/c(=C/c3cccn3C(=O)OC(C)(C)C)[nH]c2=O)cc1 [Compound 1507, (3Z,6Z)-3-(4-Methoxybenzylidene)-6-(2-(1-tertbutoxycarbonyl)pyrrolyl)methylene-2,5-piperazinedione] | 1% | 1% | 45% | 62% | 78% | 25 to 50 µM
O=c1[nH]/c(=C\c2c[nH]c3ccccc23)c(=O)[nH]/c1=C\c1ccccc1 [Compound 1509, (3Z,6Z)-3-Benzylidene-6-(3-indolylmethylene)-2,5-piperazinedione] | 1% | 1% | 1% | 35% | 58% | 50 to 100 µM
O=c1[nH]/c(=C\c2c(Cl)cccc2Cl)c(=O)[nH]/c1=C\c1ccoc1 [Compound 1542, (3Z,6Z)-3-(2,6-Dichlorobenzylidene)-6-(3-furylmethylene)-2,5-piperazinedione] | 1% | 1% | 9% | 41% | 75% | 50 to 100 µM
COc1ccc(/C=c2\[nH]c(=O)/c(=C/c3c[nH]c4ccccc34)[nH]c2=O)cc1 [Compound 1545, (3Z,6Z)-3-(3-Indolylmethylene)-6-(4-methoxybenzylidene)-2,5-piperazinedione] | 1% | 5% | 39% | 64% | 87% | –
CC(C)(C)OC(=O)n1cc(/C=c2\[nH]c(=O)/c(=C/c3c(Cl)cccc3Cl)[nH]c2=O)c2ccccc21 [Compound 1560, (3Z,6Z)-3-(2,6-Dichlorobenzylidene)-6-(1-tert-butoxycarbonyl-3-indolyl)methylene-2,5-piperazinedione] | 13% | 34% | 46% | 48% | 50% | 50 to 100 µM
CC(C)(C)OC(=O)n1cc(/C=c2\[nH]c(=O)/c(=C/c3cccs3)[nH]c2=O)c2ccccc21 [Compound 1618, (3Z,6Z)-3-(1-tert-butoxycarbonyl-3-indolyl)methylene-6-(2-thenylidene)-2,5-piperazinedione] | – | 1% | 3% | 32% | 51% | 50 to 100 µM
COc1ccc(/C=c2\[nH]c(=O)/c(=C/c3ccc(CN)cc3)[nH]c2=O)cc1 [Compound 1657, (3Z,6Z)-3-(4-Aminomethylbenzylidene)-6-(4-methoxybenzylidene)-2,5-piperazinedione] | – | 2% | 46% | 60% | 53% | 25 to 50 µM
CC(=O)Nc1ccc(/C=c2\[nH]c(=O)/c(=C/C3CCCCC3)[nH]c2=O)cc1 [Compound 1672] | 1% | 4% | 13% | 44% | 70% | 50 to 100 µM
CC(=O)Nc1ccc(/C=c2\[nH]c(=O)/c(=C/C=Cc3ccccc3)[nH]c2=O)cc1 [Compound 1676, (3Z,6Z)-3-(4-Acetamidobenzylidene)-6-cinnamylidene-2,5-piperazinedione] | 1% | 12% | 52% | 51% | 29% | 12 to 25 µM
COc1ccc(/C=c2\[nH]c(=O)/c(=C/c3cn(S(C)(=O)=O)c4ccccc34)[nH]c2=O)cc1 [Compound 1693, (3Z,6Z)-3-(1-methanesulfonyl-3-indolyl)methylene-6-(4-methoxybenzylidene)-2,5-piperazinedione] | – | 0% | 1% | 2% | 89% | 50 to 100 µM
COc1ccc(/C=c2\[nH]c(=O)/c(=C/c3cc4ccccc4[nH]3)[nH]c2=O)cc1 [Compound 1718, (3Z,6Z)-3-(2-Indolylmethylene)-6-(4-methoxybenzylidene)-2,5-piperazinedione] | 1% | 0% | 0% | 1% | 62% | 50 to 100 µM
